# Data reported in patent US11725015B2, “Macrocyclic compound and uses thereof” (President and Fellows of Harvard College, priority 2017, dated 2023).
# Key:
# [1] = test system: human gastric cancer cell line MKN-28; assay: MKN-28 growth inhibition assay; assay type: cell-based; conditions: 3 days incubation, CellTiter-Glo
# Procedure: (§1) In this assay, the growth inhibitory activities of test compounds in human gastric cancer cell lines NCI-N87 and MKN-28 were measured, respectively. NCI-N87 and MKN-28 cells were maintained in RPMI-1640 medium containing 10% FBS, penicillin and streptomycin in a 5% CO2 incubator (37° C.). To each well of a 96-well plate (Becton, Dickinson and Company, 353219), 100 μL of NCI-N87 or MKN-28 cell suspension adjusted to a concentration of 3×10^4 cells/mL with the culture medium was added, and the cells were incubated overnight in a 5% CO2 incubator (37° C.). On the next day, 100 μL of Compound (1) or Halichondrin B in three-fold dilution series suspended in the culture medium was added to each well, and the resultant was incubated for 3 days in a 5% CO2 incubator (37° C.). Then, cell viability was determined by CellTiter-Glo® Luminescent Cell Viability Assay (Promega) with EnVision 2103 Multilabel Reader (Perkin-Elmer, Wellesley, Mass.). Value of the wells containing cells without adding the test compounds was defined as 100% and the value of the wells containing no cells was defined as 0%. The concentrations of the test compound necessary for inhibiting the cell growth by 50% (i.e., an IC50 value) were calculated and are shown in Table 14.
# [2] = test system: human gastric cancer cell line NCI-N87; assay: NCI-N87 growth inhibition assay; assay type: cell-based; conditions: 3 days incubation, CellTiter-Glo
# Procedure: as §1
# [3] = test system: AN3CA (human endometrial cancer) xenograft; assay: Antitumor effects in AN3CA endometrial cancer xenograft model in mice as monotherapy; assay type: in vivo; conditions: 180 μg/kg intravenously on Day 1 and Day 8
# Procedure: A human endometrial cancer cell line AN3CA, which had been cultured in an E-MEM containing 10% FBS, and penicillin-streptomycin, was adjusted to a concentration of 1.4×10^8 cells/mL with Hanks' Balanced Salt Solution to prepare a cell suspension, and the suspension was mixed with Geltrex® (Thermo Fisher Scientific Inc., #A1413202) in a ratio of 1:1 to prepare a cell suspension in a concentration of 7×10^7 cells/mL. The cell suspension was inoculated in a volume of 100 μL into a subcutaneous part of a right flank of nude mice, 6 weeks of ages (CAnN.Cg-Foxnlnu/CrlCrlj, female, Charles River Laboratories Japan Inc.). Twelve days after cell inoculation (Day 1), the shortest diameter and the longest diameter of a tumor in each mouse were measured by using an electronic digital caliper (Digimatic™ caliper, Mitutoyo Corporation), so as to calculate the volume of the tumor in accordance with the following calculation formulae: Tumor volume (mm^3)=Longest diameter (mm)×Shortest diameter (mm)×Shortest diameter (mm)/2 Relative tumor volume (RTV)=Tumor volume (day X)/Tumor volume (the first day)
# On the basis of the volumes of tumors obtained on Day 1, the mice were grouped such that averages of the tumor volumes were substantially equal among the groups. The experiment was conducted on groups each consisting of five mice. […]
# [4] = test system: CD31-positive vessel in the FaDu subcutaneous model; assay: Effect on CD31-positive vessel in the FaDu subcutaneous model in mice (Test Example 9); assay type: in vivo; conditions: five days after administration
# Procedure: A human squamous cell carcinoma of the head and neck (SCCHN) cell line FaDu, which had been cultured in an RPMI-1640 medium containing 10% FBS, and penicillin and streptomycin, was adjusted to a concentration of 5×10^7 cells/mL with PBS to prepare a cell suspension. The cell suspension was inoculated in a volume of 100 μL into a subcutaneous part of a right flank of nude mice, 7 weeks of ages (CAnN.Cg-Foxnlnu/CrlCrlj, female, Charles River Laboratories Japan, Inc.). Ten days after cell inoculation, a test compound in saline with 100 μM of hydroxypropyl-β-cyclodextrin was intravenously administered at doses from ½ MTD to MTD. The experiment was conducted on groups each consisting of 3 mice. Five days after administration, tumor samples were collected and fixed with IHC Zinc Fixative (BD Pharmingen) at 4° C. for 24 hr. Paraffin-embedded tissues were sectioned (3 μm), mounted on positively charged slides, and air-dried. Immunohistochemical staining of CD31 was conducted using Ventana autostainer model Discover XT (Roche Diagnostics) according to the manufacture's protocol. Sections were deparaffinized, conditioned and the antigens were retrieved with CC1 (Ventana Medical Systems). Slides were blocked with Blocker A and Blocker B (Endogenous biotin blocking kit, Roche Diagnostics). Rat anti-mouse IgG CD31 antibody (Dianova GmbH) was applied at 2 μg/mL. […]
# Immunostained slides were scanned using Vectra 2 Automated Slide Imaging System (Perkin Elmer Inc.). The number of blood vessels in the whole tumor was quantified by counting the CD31-positive objects using inForm 2 software (PerkinElmer Inc.) Area of the tumor region was measured by assessing the hematoxylin-staining area using inform 2 software (PerkinElmer Inc.) The number of blood vessels was normalized by the area of the tumor region. An increase rate of the blood vessel number of the test compound-dosing group was calculated with the below formula, and shown in Table 9. […]
# [5] = test system: human small bowel cancer cell line HuTu 80; assay: HuTu 80 growth inhibition assay; assay type: cell-based; conditions: 3 days incubation, CellTiter-Glo
# Procedure: In this assay, the growth inhibitory activities of test compounds in the human small bowel cancer cell line HuTu 80, which was isolated from duodenal tissue were measured. HuTu 80 cells were maintained in EMEM medium containing 10% FBS, penicillin and streptomycin in a 5% CO2 incubator (37° C.). To each well of a 96-well plate (Becton, Dickinson and Company, 353219), 100 μL of a HuTu80 cell suspension adjusted to a concentration of 3×10^4 cells/mL with the culture medium was added, and the cells were incubated overnight in a 5% CO2 incubator (37° C.). On the next day, 100 μL of Compound (1) or Halichondrin B in three-fold dilution series suspended in the culture medium was added to each well, and the resultant was incubated for 3 days in a 5% CO2 incubator (37° C.). Then, cell viability was determined by CellTiter-Glo® Luminescent Cell Viability Assay (Promega) with EnVision 2103 Multilabel Reader (Perkin-Elmer, Wellesley, Mass.). Value of the wells containing cells without adding the test compounds was defined as 100% and the value of the wells containing no cells was defined as 0%. The concentrations of the test compounds necessary for inhibiting the cell growth by 50% (i.e., an IC50 value) were calculated and are shown in Table 15.
SMILES,IC50 [1] [nM],IC50 [2] [nM],antitumor activity [3],Increase rate of blood vessel number (%) ([4]; 0.10 mg/kg intravenously),IC50 [5] [nM],Increase rate of blood vessel number (%) ([4]; 0.025 mg/kg intravenously),Increase rate of blood vessel number (%) ([4]; 0.05 mg/kg intravenously)
C=C1C[C@@H]2CC[C@@]34C[C@H]5O[C@H]6[C@@H](O3)[C@H]3O[C@H](CC[C@@H]3O[C@H]6C5O4)CC(=O)O[C@@H]3[C@@H](C)[C@@H]4O[C@@H]5C[C@]6(C[C@@H]7O[C@]8(C[C@H](C)[C@@H]9O[C@H](CN)[C@H](O)C[C@@H]9O8)C[C@H](C)[C@@H]7O6)O[C@@H]5C[C@@H]4O[C@H]3C[C@H]3O[C@@H](CC[C@@H]1O2)C[C@@H](C)C3=C [Compound (1)],0.015,0.002,tumor regression,69,0.019,–,–
"C=C1C[C@@H]2CC[C@@]34C[C@H]5O[C@H]6[C@@H](O3)[C@H]3O[C@H](CC[C@@H]3O[C@H]6[C@H]5O4)CC(=O)O[C@@H]3[C@@H](C)[C@@H]4O[C@@H]5C[C@]6(C[C@@H]7O[C@]8(C[C@H](C)[C@@H]9O[C@H]([C@@H](O)C[C@@H](O)CO)C[C@@H]9O8)C[C@H](C)[C@@H]7O6)O[C@@H]5C[C@@H]4O[C@H]3C[C@H]3O[C@@H](CC[C@@H]1O2)C[C@@H](C)C3=C [Halichondrin B, reference compound]",0.017,0.007,–,–,0.031,31,39
